Source: ChEMBL document CHEMBL1201862, “PubChem BioAssay data set” (2004)
The source made the active and inactive calls.

How the values were obtained:
P388/ADR = experiment: cells; format: functional
P388 = experiment: cells; format: functional
SN12K1 = experiment: cells; format: functional
Protein Wnt-3a = Protein Wnt-3a (Mus musculus, UniProt P27467); experiment: Wnt3a-driven reporter signaling inhibition, dose response, selectivity assay for Gli-SUFU antagonist project, Wnt-LIGHT cells, luminescence (AID 651570); format: functional; settings: read-out: IC50_Mean;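 note: Wnt-LIGHT reporter cells stimulated with conditioned medium from Wnt3a-producing cells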
Protein Wnt-3a, sequence (P27467 whole entry): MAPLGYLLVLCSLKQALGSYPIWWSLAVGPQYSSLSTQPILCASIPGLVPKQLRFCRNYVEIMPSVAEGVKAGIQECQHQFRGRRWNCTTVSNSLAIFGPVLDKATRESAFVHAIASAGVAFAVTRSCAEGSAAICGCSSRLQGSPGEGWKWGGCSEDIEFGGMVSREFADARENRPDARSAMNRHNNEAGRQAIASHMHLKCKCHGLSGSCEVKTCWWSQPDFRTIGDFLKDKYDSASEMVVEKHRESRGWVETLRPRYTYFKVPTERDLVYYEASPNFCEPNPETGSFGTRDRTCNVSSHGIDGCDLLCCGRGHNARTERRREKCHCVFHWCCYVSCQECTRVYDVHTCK

[1] = intracellular Trypanosoma cruzi inhibitors in host cells – cell-based, plate reader, cherry-pick samples, set 3, dose response (AID 651818); format: functional;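 note: compounds incubated with infected cells for about four days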
[2] = biological target: Ras and Rab interactor 1/Tyrosine-protein kinase ABL1 (Homo sapiens, UniProt P00519+Q13671); format: functional;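 note: biochemical TR-FRET dose-response test measuring inhibition of binding between Rin1 and Abl proteins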
Ras and Rab interactor 1/Tyrosine-protein kinase ABL1, sequence (P00519 whole entry): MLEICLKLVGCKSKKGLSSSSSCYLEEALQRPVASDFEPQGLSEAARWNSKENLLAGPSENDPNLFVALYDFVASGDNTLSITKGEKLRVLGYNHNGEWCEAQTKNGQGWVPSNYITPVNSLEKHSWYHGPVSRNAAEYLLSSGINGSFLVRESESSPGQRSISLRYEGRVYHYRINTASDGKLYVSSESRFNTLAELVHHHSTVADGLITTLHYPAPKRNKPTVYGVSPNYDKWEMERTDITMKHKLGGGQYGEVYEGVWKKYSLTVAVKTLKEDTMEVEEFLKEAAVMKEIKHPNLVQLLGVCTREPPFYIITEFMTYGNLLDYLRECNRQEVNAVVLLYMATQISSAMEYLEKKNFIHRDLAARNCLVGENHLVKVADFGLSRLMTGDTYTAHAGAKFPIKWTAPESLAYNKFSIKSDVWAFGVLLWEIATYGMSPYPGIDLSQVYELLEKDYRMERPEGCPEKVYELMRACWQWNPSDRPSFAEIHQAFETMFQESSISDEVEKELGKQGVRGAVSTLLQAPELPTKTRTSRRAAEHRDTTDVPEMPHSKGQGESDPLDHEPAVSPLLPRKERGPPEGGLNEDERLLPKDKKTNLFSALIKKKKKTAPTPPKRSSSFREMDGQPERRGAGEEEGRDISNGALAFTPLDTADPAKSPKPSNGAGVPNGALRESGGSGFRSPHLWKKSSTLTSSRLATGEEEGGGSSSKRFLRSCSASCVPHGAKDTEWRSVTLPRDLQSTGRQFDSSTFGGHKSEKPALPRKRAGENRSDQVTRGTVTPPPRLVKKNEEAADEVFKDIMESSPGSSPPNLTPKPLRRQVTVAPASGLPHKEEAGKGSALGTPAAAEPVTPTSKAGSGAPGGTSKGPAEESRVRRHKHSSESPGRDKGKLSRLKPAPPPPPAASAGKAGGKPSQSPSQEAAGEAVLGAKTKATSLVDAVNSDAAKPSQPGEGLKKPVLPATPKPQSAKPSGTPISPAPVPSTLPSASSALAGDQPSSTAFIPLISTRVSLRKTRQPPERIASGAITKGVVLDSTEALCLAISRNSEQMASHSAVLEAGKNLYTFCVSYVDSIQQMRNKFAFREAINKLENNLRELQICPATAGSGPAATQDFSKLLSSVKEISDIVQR
Ras and Rab interactor 1/Tyrosine-protein kinase ABL1, sequence (Q13671 whole entry): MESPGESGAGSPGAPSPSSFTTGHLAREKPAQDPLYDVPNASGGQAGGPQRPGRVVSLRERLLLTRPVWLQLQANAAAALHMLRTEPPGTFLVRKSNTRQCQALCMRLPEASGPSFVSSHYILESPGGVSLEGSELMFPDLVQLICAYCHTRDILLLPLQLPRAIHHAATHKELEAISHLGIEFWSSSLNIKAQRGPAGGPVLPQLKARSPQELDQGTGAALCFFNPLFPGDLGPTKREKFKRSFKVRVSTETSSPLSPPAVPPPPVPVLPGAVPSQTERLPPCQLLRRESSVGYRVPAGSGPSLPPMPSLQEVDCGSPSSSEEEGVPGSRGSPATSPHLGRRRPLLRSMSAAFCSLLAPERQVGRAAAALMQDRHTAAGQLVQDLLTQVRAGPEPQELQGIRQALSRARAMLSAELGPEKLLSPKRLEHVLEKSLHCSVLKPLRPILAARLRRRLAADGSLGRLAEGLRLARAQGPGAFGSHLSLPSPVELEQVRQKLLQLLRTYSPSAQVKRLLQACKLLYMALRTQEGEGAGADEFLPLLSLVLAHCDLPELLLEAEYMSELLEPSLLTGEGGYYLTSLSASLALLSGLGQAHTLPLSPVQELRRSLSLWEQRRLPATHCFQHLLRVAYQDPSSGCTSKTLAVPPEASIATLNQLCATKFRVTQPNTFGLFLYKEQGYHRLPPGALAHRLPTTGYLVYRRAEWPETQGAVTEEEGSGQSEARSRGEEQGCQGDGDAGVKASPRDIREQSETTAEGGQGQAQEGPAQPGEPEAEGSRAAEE

[3] = biological target: T1, Short transient receptor potential channel 4 (Mus musculus, UniProt Q9QUQ5); experiment: mouse TRPC4 channel activators, dose response, cell-based, HEK293 TRPC4/mu-opioid, Fluo-4 calcium (AID 434937); format: functional
T1 sequence (Q9QUQ5 whole entry): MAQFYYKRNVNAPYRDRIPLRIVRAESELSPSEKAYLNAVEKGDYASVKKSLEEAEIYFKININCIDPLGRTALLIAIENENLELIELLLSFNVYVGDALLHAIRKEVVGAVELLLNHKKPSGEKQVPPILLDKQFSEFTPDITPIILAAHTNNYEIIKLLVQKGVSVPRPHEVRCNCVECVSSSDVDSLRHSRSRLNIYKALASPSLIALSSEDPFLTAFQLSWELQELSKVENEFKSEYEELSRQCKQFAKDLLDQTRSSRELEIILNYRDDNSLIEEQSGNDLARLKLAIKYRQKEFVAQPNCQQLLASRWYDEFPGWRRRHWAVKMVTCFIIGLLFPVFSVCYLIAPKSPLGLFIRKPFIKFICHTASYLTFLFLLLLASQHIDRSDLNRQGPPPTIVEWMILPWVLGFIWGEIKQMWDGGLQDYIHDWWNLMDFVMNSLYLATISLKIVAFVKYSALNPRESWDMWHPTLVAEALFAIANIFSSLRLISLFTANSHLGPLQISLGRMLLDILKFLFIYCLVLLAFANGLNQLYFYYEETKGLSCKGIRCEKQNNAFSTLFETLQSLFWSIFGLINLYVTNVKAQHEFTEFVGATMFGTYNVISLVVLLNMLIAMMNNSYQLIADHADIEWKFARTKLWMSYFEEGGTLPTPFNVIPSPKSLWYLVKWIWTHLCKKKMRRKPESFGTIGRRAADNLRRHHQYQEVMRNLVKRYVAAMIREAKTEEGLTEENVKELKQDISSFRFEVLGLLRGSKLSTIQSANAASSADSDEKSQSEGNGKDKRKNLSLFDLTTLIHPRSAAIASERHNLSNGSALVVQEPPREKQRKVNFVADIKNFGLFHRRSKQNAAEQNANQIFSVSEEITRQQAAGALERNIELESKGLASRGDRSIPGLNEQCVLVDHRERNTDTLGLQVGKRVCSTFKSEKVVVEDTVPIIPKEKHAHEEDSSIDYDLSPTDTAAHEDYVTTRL

[4] = biological target: Glucose-6-phosphate 1-dehydrogenase (Homo sapiens, UniProt P11413); experiment: human G6PD enzyme inhibitors, dose response, selectivity assay for P. falciparum G6PD inhibitor project, biochemical, fluorescence (AID 504792); format: functional
Glucose-6-phosphate 1-dehydrogenase, sequence (P11413 whole entry): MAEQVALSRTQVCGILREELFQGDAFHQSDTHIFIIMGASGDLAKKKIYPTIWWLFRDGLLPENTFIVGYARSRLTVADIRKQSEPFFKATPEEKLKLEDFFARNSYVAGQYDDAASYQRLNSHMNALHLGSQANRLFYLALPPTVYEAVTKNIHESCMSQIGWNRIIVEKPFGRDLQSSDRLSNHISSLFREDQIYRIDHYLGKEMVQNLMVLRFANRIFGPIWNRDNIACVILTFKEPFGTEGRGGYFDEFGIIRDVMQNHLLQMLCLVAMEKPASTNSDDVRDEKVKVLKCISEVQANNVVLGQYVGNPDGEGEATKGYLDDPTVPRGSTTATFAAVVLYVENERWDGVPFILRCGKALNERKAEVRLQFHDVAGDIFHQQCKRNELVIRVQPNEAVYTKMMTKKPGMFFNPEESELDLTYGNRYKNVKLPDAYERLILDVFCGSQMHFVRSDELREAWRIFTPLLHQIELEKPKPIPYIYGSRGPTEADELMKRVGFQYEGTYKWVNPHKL

[5] = biological target: T2, Replicative DNA helicase DnaB (Mycobacterium tuberculosis, UniProt P9WMR3); experiment: DnaB intein splicing inhibitors, dose response, biochemical, cell-free fluorescence (AID 449749); format: functional
T2 sequence (P9WMR3 whole entry): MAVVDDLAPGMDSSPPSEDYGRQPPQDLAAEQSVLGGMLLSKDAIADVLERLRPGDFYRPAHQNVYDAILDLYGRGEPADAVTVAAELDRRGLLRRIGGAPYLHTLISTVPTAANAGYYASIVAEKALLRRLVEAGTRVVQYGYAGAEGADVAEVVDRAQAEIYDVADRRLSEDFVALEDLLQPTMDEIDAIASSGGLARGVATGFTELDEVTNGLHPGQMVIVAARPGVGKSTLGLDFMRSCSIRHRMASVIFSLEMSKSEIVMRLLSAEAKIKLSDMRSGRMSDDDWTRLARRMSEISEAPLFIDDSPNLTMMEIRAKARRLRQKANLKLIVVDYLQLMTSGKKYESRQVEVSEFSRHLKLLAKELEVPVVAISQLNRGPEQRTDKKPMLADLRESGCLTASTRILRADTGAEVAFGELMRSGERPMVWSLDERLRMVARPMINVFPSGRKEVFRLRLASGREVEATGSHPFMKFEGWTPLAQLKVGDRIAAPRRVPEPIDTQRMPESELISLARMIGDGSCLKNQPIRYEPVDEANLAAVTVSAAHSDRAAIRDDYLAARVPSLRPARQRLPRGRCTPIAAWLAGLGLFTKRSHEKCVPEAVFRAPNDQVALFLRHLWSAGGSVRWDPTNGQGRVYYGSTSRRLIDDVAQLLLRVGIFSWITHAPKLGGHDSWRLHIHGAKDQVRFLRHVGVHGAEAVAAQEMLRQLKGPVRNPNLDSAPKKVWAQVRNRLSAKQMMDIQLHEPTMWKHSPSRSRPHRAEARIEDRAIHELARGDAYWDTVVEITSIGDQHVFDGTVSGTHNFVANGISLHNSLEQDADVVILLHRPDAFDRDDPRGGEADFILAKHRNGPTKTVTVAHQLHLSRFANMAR

Protein RecA = biological target: T3, Protein RecA (Mycobacterium tuberculosis, UniProt P9WHJ3); experiment: Fluorescence Cell-Free Homogeneous Dose Retest to Identify Inhibitors of RecA-Intein Splicing Activity. [Related pubchem assays (depositor defined):AID2097, AID2223, AID489010, AID492950]; format: functional
T3 sequence (P9WHJ3 whole entry): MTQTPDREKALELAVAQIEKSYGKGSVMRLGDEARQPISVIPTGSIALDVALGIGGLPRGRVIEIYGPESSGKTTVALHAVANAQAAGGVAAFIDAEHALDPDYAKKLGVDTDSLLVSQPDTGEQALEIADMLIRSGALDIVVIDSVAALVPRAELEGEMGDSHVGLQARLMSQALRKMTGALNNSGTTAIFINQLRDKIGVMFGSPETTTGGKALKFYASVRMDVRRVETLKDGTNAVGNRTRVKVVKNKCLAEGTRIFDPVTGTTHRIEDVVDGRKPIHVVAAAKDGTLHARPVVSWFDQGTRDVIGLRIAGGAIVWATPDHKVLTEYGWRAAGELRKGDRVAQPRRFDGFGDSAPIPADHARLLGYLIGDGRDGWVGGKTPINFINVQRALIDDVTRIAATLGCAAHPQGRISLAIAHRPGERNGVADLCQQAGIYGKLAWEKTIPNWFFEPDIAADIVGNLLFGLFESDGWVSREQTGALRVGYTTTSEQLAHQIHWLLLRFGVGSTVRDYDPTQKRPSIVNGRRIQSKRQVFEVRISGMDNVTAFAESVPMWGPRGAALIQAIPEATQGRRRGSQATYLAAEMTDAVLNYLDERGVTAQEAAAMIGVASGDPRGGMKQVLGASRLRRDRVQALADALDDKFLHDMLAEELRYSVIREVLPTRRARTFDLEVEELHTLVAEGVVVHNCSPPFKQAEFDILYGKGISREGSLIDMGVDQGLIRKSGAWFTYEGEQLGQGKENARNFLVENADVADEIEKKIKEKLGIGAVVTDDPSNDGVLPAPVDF

Large T antigen = Large T antigen (Simian virus 40, UniProt P03070); format: functional, Betapolyomavirus macacae;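 note: Confirmatory-stage PubChem screen for compounds that inhibit SV40 T antigen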
Large T antigen, sequence (P03070 whole entry, the tested form may be a part): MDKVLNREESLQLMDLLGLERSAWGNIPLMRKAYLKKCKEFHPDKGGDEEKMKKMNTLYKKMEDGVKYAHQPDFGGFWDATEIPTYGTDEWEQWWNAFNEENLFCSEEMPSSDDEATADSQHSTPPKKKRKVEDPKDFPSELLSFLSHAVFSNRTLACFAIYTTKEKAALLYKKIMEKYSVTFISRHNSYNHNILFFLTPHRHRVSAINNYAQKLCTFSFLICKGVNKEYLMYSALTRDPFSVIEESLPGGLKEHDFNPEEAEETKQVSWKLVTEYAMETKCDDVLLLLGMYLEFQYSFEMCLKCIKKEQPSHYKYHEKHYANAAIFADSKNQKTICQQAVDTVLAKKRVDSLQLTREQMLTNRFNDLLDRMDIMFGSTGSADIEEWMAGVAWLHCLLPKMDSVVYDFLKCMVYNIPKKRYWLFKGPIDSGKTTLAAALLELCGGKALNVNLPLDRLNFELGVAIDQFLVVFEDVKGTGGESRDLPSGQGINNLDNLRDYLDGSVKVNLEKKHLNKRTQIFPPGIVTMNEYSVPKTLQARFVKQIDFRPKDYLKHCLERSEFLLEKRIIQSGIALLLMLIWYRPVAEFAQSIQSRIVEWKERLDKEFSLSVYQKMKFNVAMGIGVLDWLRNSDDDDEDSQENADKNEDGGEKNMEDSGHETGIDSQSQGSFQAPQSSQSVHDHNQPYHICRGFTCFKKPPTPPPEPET

[6] = biological target: T4, RNA-binding protein pos-1 (Caenorhabditis elegans, UniProt G5EF15); experiment: inhibitors of POS-1/mex-3 RNA binding, dose response, biochemical, fluorescence polarization (AID 1964);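 note: purified POS-1 fused to maltose binding protein made in E. coli; potency of compounds blocking POS-1 binding to fluorescent RNA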
T4 sequence (G5EF15 whole entry): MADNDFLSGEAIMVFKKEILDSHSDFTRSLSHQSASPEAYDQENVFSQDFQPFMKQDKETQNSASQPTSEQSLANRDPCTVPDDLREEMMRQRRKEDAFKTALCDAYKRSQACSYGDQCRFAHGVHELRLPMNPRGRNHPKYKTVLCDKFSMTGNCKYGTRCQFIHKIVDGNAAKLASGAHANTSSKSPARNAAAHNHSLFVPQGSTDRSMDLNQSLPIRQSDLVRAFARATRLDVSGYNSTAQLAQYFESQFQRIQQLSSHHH

[7] = biological target: FAD-linked sulfhydryl oxidase ALR (Homo sapiens, UniProt P55789); experiment: inhibitors of human ALR sulfhydryl oxidase, dose response, biochemical, H2O2 detection, luminescence, cherry-pick (AID 493248)
FAD-linked sulfhydryl oxidase ALR, sequence (P55789 whole entry): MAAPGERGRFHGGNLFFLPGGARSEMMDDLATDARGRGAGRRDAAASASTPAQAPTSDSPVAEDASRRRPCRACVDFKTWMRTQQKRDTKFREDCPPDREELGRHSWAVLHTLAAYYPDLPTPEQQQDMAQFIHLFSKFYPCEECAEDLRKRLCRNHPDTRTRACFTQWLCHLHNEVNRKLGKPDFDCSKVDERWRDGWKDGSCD

[8] = biological target: T5, Zinc finger protein mex-5 (Caenorhabditis elegans, UniProt Q9XUB2); experiment: MEX-5/TCR-2 RNA interaction inhibitors, dose response, biochemical, C. elegans, fluorescence polarization (AID 1960)
T5 sequence (Q9XUB2 whole entry): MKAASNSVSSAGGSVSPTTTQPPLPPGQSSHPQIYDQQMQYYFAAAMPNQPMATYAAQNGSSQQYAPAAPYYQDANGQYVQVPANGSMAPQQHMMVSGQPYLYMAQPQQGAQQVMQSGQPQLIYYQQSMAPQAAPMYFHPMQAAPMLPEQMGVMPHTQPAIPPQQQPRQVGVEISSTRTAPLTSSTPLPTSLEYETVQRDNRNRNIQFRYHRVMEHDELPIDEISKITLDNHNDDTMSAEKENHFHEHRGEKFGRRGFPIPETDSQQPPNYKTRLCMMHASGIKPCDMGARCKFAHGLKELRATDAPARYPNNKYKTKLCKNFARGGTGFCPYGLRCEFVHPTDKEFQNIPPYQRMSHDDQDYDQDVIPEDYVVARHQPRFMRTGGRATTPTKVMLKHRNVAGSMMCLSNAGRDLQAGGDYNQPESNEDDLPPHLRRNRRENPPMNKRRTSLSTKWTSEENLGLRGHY

HEK293 [9] = experiment: cells; format: functional, cell-based; settings: Homo sapiens
HEK293 [10] = experiment: cells; format: functional, cell-based; settings: Homo sapiens; remark: listed apart in the source
HEK293 [11] = experiment: NOD2 signaling inhibitors in MDP-stimulated cells, cell-based, uHTS, luminescence (AID 2001); format: functional; settings: Homo sapiens
HEK293 [12] = experiment: NOD1 signaling inhibitors, primary screen, cell-based, luminescence, uHTS (AID 1578); format: functional; settings: Homo sapiens

O=C1CCCn2c3ccccc3c3ccnc1c32
GI50 (P388/ADR; Mus musculus, P388/ADR): 20 µM (inactive) | GI50 (P388; Mus musculus, P388): 22.6 µM (inactive) | GI50 (SN12K1; Homo sapiens, SN12K1): 39.9 µM (inactive)

Cc1ccc(NCC(=O)Nc2cccc(S(=O)(=O)N(C)C)c2)cc1S(=O)(=O)N1CCCCCC1
IC50 (Protein Wnt-3a): 8.18 µM (active)

Nc1cc2c(cc1[N+](=O)[O-])[nH]c1c(-c3ccccc3)nccc12
GI50 (P388/ADR; Mus musculus, P388/ADR): 17.7 µM (inactive) | GI50 (P388; Mus musculus, P388): 17.2 µM (inactive) | GI50 (SN12K1; Homo sapiens, SN12K1): 20.7 µM (inactive)

COc1ccc2[nH]c3c(C)c4cc[n+](C)cc4c(C)c3c2c1
GI50 (P388/ADR): 47.4 µM (inactive) | GI50 (P388): 0.796 µM (active) | GI50 (SN12K1): 0.287 µM (active)

O=P1(Oc2ccc(Cl)cc2Cl)Oc2ccc3ccccc3c2-c2c(ccc3ccccc23)O1
GI50 (P388/ADR; Mus musculus, P388/ADR): 51.4 µM (inactive) | GI50 (P388; Mus musculus, P388): 33.3 µM (inactive) | GI50 (SN12K1; Homo sapiens, SN12K1): 20.7 µM (inactive)

C[C@@H]1CN([C@@H](C)CO)C(=O)c2cccc(NC(=O)c3nc4ccccc4s3)c2O[C@H]1CN(C)Cc1ccc(C(=O)Nc2ccccc2N)cc1
AC50 [1]: 2.09 µM (active)

CN(C(=O)c1ccc(NC(=O)Cc2ccc(NC(=O)C3CCN(C(=O)C4CCCC4)CC3)cc2)cc1)C1CCCC1
IC50 [2]: 12.6 µM (inactive)

CC(C)(C)c1cc(Cl)ccc1OCCn1ccnc1
EC50 [3]: 5.96 µM (active)

OCCCNc1ncnc2c1ncn2[C@H]1CN(Cc2ccc(-c3ccccc3)cc2)C[C@@H](CO)O1
IC50 [2]: 20.6 µM (inactive)

CCN(CC)C(=O)c1ccc(NC(=O)c2cc(S(=O)(=O)N3CCCCCC3)ccc2OC)cc1
IC50 [2]: 0.618 µM (active)

O=S(=O)(Nc1c(O)ccc2ccccc12)c1ccccc1
IC50 [4]: 29.9 µM (inactive) | AC50 [5]: 5.09 µM (active) | EC50 (Protein RecA): 1.51 µM (active)

NCCCNC(=O)c1cc2ccccc2[nH]1
EC50 [3]: 7.5 µM (active)

C[C@H]1CN([C@@H](C)CO)C(=O)c2cc(NS(=O)(=O)c3ccccc3)ccc2O[C@@H]1CN(C)Cc1ccc(-c2ccccc2)cc1
AC50 [1]: 6.29 µM (active)

CCCN1CCc2cccc3c2[C@H]1Cc1ccc(O)c(O)c1-3
IC50 (Large T antigen): 29.7 µM (active) | EC50 [6]: 5.56 µM (active) | AC50 [7]: 0.009 µM (active) | IC50 [4]: > 80 µM (inactive) | EC50 [8]: 3.12 µM (active)

Cn1sc2ccccc2c1=S
GI50 (P388/ADR; Mus musculus, P388/ADR): 0.441 µM (active) | GI50 (P388; Mus musculus, P388): 0.294 µM (active) | GI50 (SN12K1; Homo sapiens, SN12K1): 2.79 µM (inactive)

Cc1ccc(C(=O)N2CCN3C(=O)c4ccccc4C23c2ccc(Cl)cc2)cc1 (configuration not stated)
IC50 (Protein Wnt-3a): 10.3 µM (active)

C[C@H](CO)N1C[C@H](C)[C@H](CN(C)Cc2ccc(-c3ccccc3)cc2)Oc2c(NC(=O)NC3CCCCC3)cccc2C1=O
AC50 [1]: 3.38 µM (active)

Oc1nc(CCl)nc2cc(-c3ccc(F)cc3)sc12
IC50 (HEK293 [9]): > 20 µM (inactive) | IC50 (HEK293 [10]): 12.6 µM (active) | IC50 (HEK293 [11]): 15.2 µM (inactive) | EC50 (HEK293 [12]): 13.1 µM (active)
